# Experimental data taken from patent publication US3981865A, “Bis-type penicillins and process for producing the same” (Toyama Chemical Co., Ltd., priority 1974, dated 1976).
# Tests used:
# [1] = test system: β-lactamase from Pseudomonas aeruginosa GN 238; test: Resistant activity against β-lactamase, iodometric assay; assay type: biochemical; settings: β-lactamase hydrolysis, relative to Potassium Penicillin G = 100
# Method: (§1) 3. Resistant activity against β-lactamase, Pseudomonas aeruginosa GN 238 and Escherchia coli 33:
# (§2) The resistant activity of each compound against β-lactamase was measured in the manner described below.
# (§3) β-Lactamase was prepared from Pseudomonas aeruginosa GN 238 and Escherchia coli 33. This microorganism was cultured in 100 ml. of a medium containing 2 g. of yeast extract, 10 g. of polypeptone, 2 g. of glucose, 7 g. of disodium hydrogen phosphate, 2 g. of potassium dihydrogen phosphate, 1.2 g. of ammonium sulfate and 0.4 g. of magnesium sulfate, per liter, in a 500-ml. Erlenmeyer flask for 6 hrs. at 37°C with shaking. The resulting cells were collected by centrifugation (5,000 r.p.m. × 10 min.), washed three times with 0.1 M phosphate buffer (pH 7.0). Subsequently, the cells were subjected to sonication (20 KHz, 20 min.) and then centrifuged at 15,000 r.p.m. for 60 min. By using the supernatant of enzyme fluid, the resistance of each compound against β-lactamase was determined by the iodometric assay method. Each numeral shown in Table 3 is a relative activity value calculated by assuming as 100 the activity of the control Potassium Penicillin G.
# [2] = test system: β-lactamase from Escherchia coli 33; test: as above; assay type: biochemical; settings: β-lactamase hydrolysis, relative to Potassium Penicillin G = 100
# Method: as §1, §2, §3
# [3] = test system: Pseudomonas aeruginosa I.F.O.; test: MIC by plate method, standard strains; assay type: cell-based; settings: Heart infusion agar pH 7.4, inoculum 10^4 cells per plate (10^6 cells/ml.), unit assumed
# Method: (§4) The minimum inhibitory concentration (MIC) was determined by the plate method disclosed in "Chemotherapy" (Japan), Vol. 16, (1968), pages 98 - 99. The culture medium used was a Heart infusion agar (pH 7.4). The number of the cells per plate used in the inoculum was 10^4 (10^6 cells/ml.).
# [4] = test system: Escherchia coli NIHJ; test: MIC by plate method, standard strains; assay type: cell-based; settings: Heart infusion agar pH 7.4, inoculum 10^4 cells per plate (10^6 cells/ml.), unit assumed
# Method: as §4
# [5] = test system: Proteus vulgaris 3027; test: MIC by plate method, standard strains; assay type: cell-based; settings: Heart infusion agar pH 7.4, inoculum 10^4 cells per plate (10^6 cells/ml.), unit assumed
# Method: as §4
# [6] = test system: Staphylococcus aureus 209P; test: MIC by plate method, standard strains; assay type: cell-based; settings: Heart infusion agar pH 7.4, inoculum 10^4 cells per plate (10^6 cells/ml.), unit assumed
# Method: as §4
# [7] = test system: Klebsiella pneumoniae; test: MIC by plate method, standard strains; assay type: cell-based; settings: Heart infusion agar pH 7.4, inoculum 10^4 cells per plate (10^6 cells/ml.), unit assumed
# Method: as §4
# [8] = Acute toxicity LD50 i.v. in mouse; settings: in vivo, iv; i.v. in mouse having a weight of 19 ± 1 g.
# Text: The present penicillins have generally low toxicity.
# [9] = test system: Pseudomonas aeruginosa clinical isolates; test: MIC by plate method, clinical isolates of bacteria; assay type: cell-based; settings: for MIC Pseudomonas aeruginosa GN 82: clinical isolate GN 82, Heart infusion agar pH 7.4, unit assumed; for MIC Pseudomonas aeruginosa GN 163: clinical isolate GN 163, Heart infusion agar pH 7.4, unit assumed; for MIC Pseudomonas aeruginosa GN 221: clinical isolate GN 221, Heart infusion agar pH 7.4, unit assumed; for MIC Pseudomonas aeruginosa GN 264: clinical isolate GN 264, Heart infusion agar pH 7.4, unit assumed; for MIC Pseudomonas aeruginosa GN 376: clinical isolate GN 376, Heart infusion agar pH 7.4, unit assumed; for MIC Pseudomonas aeruginosa GN 383: clinical isolate GN 383, Heart infusion agar pH 7.4, unit assumed; for MIC Pseudomonas aeruginosa GN 1035: clinical isolate GN 1035, Heart infusion agar pH 7.4, unit assumed; for MIC Pseudomonas aeruginosa GN 1091: clinical isolate GN 1091, Heart infusion agar pH 7.4, unit assumed; for MIC Pseudomonas aeruginosa GN 2565: clinical isolate GN 2565, Heart infusion agar pH 7.4, unit assumed; for MIC Pseudomonas aeruginosa GN 2987: clinical isolate GN 2987, Heart infusion agar pH 7.4, unit assumed; for MIC Pseudomonas aeruginosa S-2: clinical isolate S-2, Heart infusion agar pH 7.4, unit assumed; for MIC Pseudomonas aeruginosa S-3: clinical isolate S-3, Heart infusion agar pH 7.4, unit assumed; for MIC Pseudomonas aeruginosa S-4: clinical isolate S-4, Heart infusion agar pH 7.4, unit assumed
# Method: as §4
# MIC was determined in the same manner as in the preceding paragraph (1).
smiles,measurement,setting,value
CC1(C)S[C@@H]2[C@H](NC(=O)[C@H](NC(=O)NC(=O)c3ccc(C(=O)NC(=O)N[C@@H](C(=O)N[C@@H]4C(=O)N5[C@@H]4SC(C)(C)[C@@H]5C(=O)O)c4ccccc4)cc3)c3ccccc3)C(=O)N2[C@H]1C(=O)O [Compound No. 1],Relative activity (%) Pseudomonas aeruginosa GN238,[1],18%
same,Relative activity (%) Escherchia coli 33,[2],12%
same,MIC Pseudomonas aeruginosa I.F.O.,[3],12.5 µg/mL
same,MIC Escherchia coli NIHJ,[4],3.13 µg/mL
same,MIC Proteus vulgaris 3027,[5],25 µg/mL
same,MIC Staphylococcus aureus 209P,[6],< 1.57 µg/mL
same,MIC Klebsiella pneumoniae,[7],25 µg/mL
"CC1(C)S[C@@H]2[C@H](NC(=O)[C@H](NC(=O)NC(=O)CCC(=O)NC(=O)N[C@@H](C(=O)N[C@@H]3C(=O)N4[C@@H]3SC(C)(C)[C@@H]4C(=O)O)c3ccccc3)c3ccccc3)C(=O)N2[C@H]1C(=O)O [Compound No. 3, N,N'-succinyl-bis[6-(D(-)-α-ureidophenylacetamido)penicillanic acid]]",LD50,[8],> 3000 mg/kg
same,Relative activity (%) Pseudomonas aeruginosa GN238,[1],5%
same,Relative activity (%) Escherchia coli 33,[2],3%
same,MIC Pseudomonas aeruginosa GN 82,[9],12.5 µg/mL
same,MIC Pseudomonas aeruginosa GN 163,[9],25 µg/mL
same,MIC Pseudomonas aeruginosa GN 221,[9],25 µg/mL
same,MIC Pseudomonas aeruginosa GN 264,[9],50 µg/mL
same,MIC Pseudomonas aeruginosa GN 376,[9],25 µg/mL
same,MIC Pseudomonas aeruginosa GN 383,[9],50 µg/mL
same,MIC Pseudomonas aeruginosa GN 1035,[9],50 µg/mL
same,MIC Pseudomonas aeruginosa GN 1091,[9],25 µg/mL
same,MIC Pseudomonas aeruginosa GN 2565,[9],25 µg/mL
same,MIC Pseudomonas aeruginosa GN 2987,[9],25 µg/mL
same,MIC Pseudomonas aeruginosa S-2,[9],25 µg/mL
same,MIC Pseudomonas aeruginosa S-3,[9],25 µg/mL
same,MIC Pseudomonas aeruginosa S-4,[9],25 µg/mL
same,MIC Pseudomonas aeruginosa I.F.O.,[3],25 µg/mL
same,MIC Escherchia coli NIHJ,[4],12.5 µg/mL
same,MIC Proteus vulgaris 3027,[5],12.5 µg/mL
same,MIC Staphylococcus aureus 209P,[6],< 1.57 µg/mL
same,MIC Klebsiella pneumoniae,[7],100 µg/mL
"CC1(C)S[C@@H]2[C@H](NC(=O)[C@H](NC(=O)NC(=O)CCCCCCCCC(=O)NC(=O)N[C@@H](C(=O)N[C@@H]3C(=O)N4[C@@H]3SC(C)(C)[C@@H]4C(=O)O)c3ccccc3)c3ccccc3)C(=O)N2[C@H]1C(=O)O [Compound No. 4, N,N'-sebacoyl-bis[6-(D(-)-α-ureidophenylacetamido)penicillanic acid]]",Relative activity (%) Pseudomonas aeruginosa GN238,[1],12%
same,Relative activity (%) Escherchia coli 33,[2],8%
same,MIC Pseudomonas aeruginosa I.F.O.,[3],50 µg/mL
same,MIC Escherchia coli NIHJ,[4],3.13 µg/mL
same,MIC Proteus vulgaris 3027,[5],25 µg/mL
same,MIC Staphylococcus aureus 209P,[6],< 1.57 µg/mL
same,MIC Klebsiella pneumoniae,[7],25 µg/mL
"CC1(C)S[C@@H]2[C@H](NC(=O)[C@H](NC(=O)NC(=O)CCCCCCCCCCCC(=O)NC(=O)N[C@@H](C(=O)N[C@@H]3C(=O)N4[C@@H]3SC(C)(C)[C@@H]4C(=O)O)c3ccccc3)c3ccccc3)C(=O)N2[C@H]1C(=O)O [Compound No. 6, N,n'-tridecanedioyl-bis[6-(D(-)-α-ureidophenylacetamido)penicillanic acid]]",Relative activity (%) Pseudomonas aeruginosa GN238,[1],< 1%
same,Relative activity (%) Escherchia coli 33,[2],< 1%
same,MIC Pseudomonas aeruginosa I.F.O.,[3],25 µg/mL
same,MIC Escherchia coli NIHJ,[4],3.13 µg/mL
same,MIC Proteus vulgaris 3027,[5],25 µg/mL
same,MIC Staphylococcus aureus 209P,[6],< 1.57 µg/mL
same,MIC Klebsiella pneumoniae,[7],12.5 µg/mL
"CC1(C)S[C@@H]2[C@H](NC(=O)Cc3ccccc3)C(=O)N2[C@H]1C(=O)O [Potassium Penicillin G, reference compound]",Relative activity (%) Pseudomonas aeruginosa GN238,[1],100%
same,Relative activity (%) Escherchia coli 33,[2],100%
"CC1(C)S[C@@H]2[C@H](NC(=O)[C@H](N)c3ccccc3)C(=O)N2[C@H]1C(=O)O [Sodium Ampicillin, reference compound]",MIC Pseudomonas aeruginosa GN 82,[9],> 200 µg/mL
same,MIC Pseudomonas aeruginosa GN 163,[9],> 200 µg/mL
same,MIC Pseudomonas aeruginosa GN 221,[9],> 200 µg/mL
same,MIC Pseudomonas aeruginosa GN 264,[9],> 200 µg/mL
same,MIC Pseudomonas aeruginosa GN 376,[9],> 200 µg/mL
same,MIC Pseudomonas aeruginosa GN 383,[9],> 200 µg/mL
same,MIC Pseudomonas aeruginosa GN 1035,[9],> 200 µg/mL
same,MIC Pseudomonas aeruginosa GN 1091,[9],> 200 µg/mL
same,MIC Pseudomonas aeruginosa GN 2565,[9],> 200 µg/mL
same,MIC Pseudomonas aeruginosa GN 2987,[9],> 200 µg/mL
same,MIC Pseudomonas aeruginosa S-2,[9],> 200 µg/mL
same,MIC Pseudomonas aeruginosa S-3,[9],> 200 µg/mL
same,MIC Pseudomonas aeruginosa S-4,[9],> 200 µg/mL
same,MIC Pseudomonas aeruginosa I.F.O.,[3],> 200 µg/mL
same,MIC Escherchia coli NIHJ,[4],< 1.57 µg/mL
same,MIC Proteus vulgaris 3027,[5],> 200 µg/mL
same,MIC Staphylococcus aureus 209P,[6],< 1.57 µg/mL
same,MIC Klebsiella pneumoniae,[7],50 µg/mL
CC1(C)S[C@@H]2[C@H](NC(=O)[C@H](NC(=O)NC(=O)c3ccc4cc(C(=O)NC(=O)N[C@@H](C(=O)N[C@@H]5C(=O)N6[C@@H]5SC(C)(C)[C@@H]6C(=O)O)c5ccccc5)ccc4c3)c3ccccc3)C(=O)N2[C@H]1C(=O)O [compound 2],MIC Pseudomonas aeruginosa I.F.O.,[3],25 µg/mL
same,MIC Escherchia coli NIHJ,[4],< 1.57 µg/mL
same,MIC Proteus vulgaris 3027,[5],3.15 µg/mL
same,MIC Staphylococcus aureus 209P,[6],< 1.57 µg/mL
same,MIC Klebsiella pneumoniae,[7],3.13 µg/mL
"CC1(C)S[C@@H]2[C@H](NC(=O)[C@H](NC(=O)NC(=O)CCCCCCCCCCC(=O)NC(=O)N[C@@H](C(=O)N[C@@H]3C(=O)N4[C@@H]3SC(C)(C)[C@@H]4C(=O)O)c3ccccc3)c3ccccc3)C(=O)N2[C@H]1C(=O)O [compound 5, N,n'-dodecanedioyl-bis[6-(D(-)-α-ureidophenylacetamido)penicillanic acid]]",MIC Pseudomonas aeruginosa I.F.O.,[3],50 µg/mL
same,MIC Escherchia coli NIHJ,[4],3.13 µg/mL
same,MIC Proteus vulgaris 3027,[5],100 µg/mL
same,MIC Staphylococcus aureus 209P,[6],< 1.57 µg/mL
same,MIC Klebsiella pneumoniae,[7],12.5 µg/mL
CC1(C)S[C@@H]2[C@H](NC(=O)[C@H](NC(=O)NC(=O)COc3ccc(OCC(=O)NC(=O)N[C@@H](C(=O)N[C@@H]4C(=O)N5[C@@H]4SC(C)(C)[C@@H]5C(=O)O)c4ccccc4)cc3)c3ccccc3)C(=O)N2[C@H]1C(=O)O [compound 7],MIC Pseudomonas aeruginosa I.F.O.,[3],25 µg/mL
same,MIC Escherchia coli NIHJ,[4],6.25 µg/mL
same,MIC Proteus vulgaris 3027,[5],12.5 µg/mL
same,MIC Staphylococcus aureus 209P,[6],< 1.57 µg/mL
same,MIC Klebsiella pneumoniae,[7],25 µg/mL
CC1(C)S[C@@H]2[C@H](NC(=O)[C@H](NC(=O)NC(=O)c3ccc(CCc4ccc(C(=O)NC(=O)N[C@@H](C(=O)N[C@@H]5C(=O)N6[C@@H]5SC(C)(C)[C@@H]6C(=O)O)c5ccccc5)cc4)cc3)c3ccccc3)C(=O)N2[C@H]1C(=O)O [compound 8],MIC Pseudomonas aeruginosa I.F.O.,[3],50 µg/mL
same,MIC Escherchia coli NIHJ,[4],< 1.57 µg/mL
same,MIC Proteus vulgaris 3027,[5],6.25 µg/mL
same,MIC Staphylococcus aureus 209P,[6],< 1.57 µg/mL
same,MIC Klebsiella pneumoniae,[7],6.25 µg/mL
CC1(C)S[C@@H]2[C@H](NC(=O)[C@H](NC(=O)NC(=O)c3ccc(C(=O)c4ccc(C(=O)NC(=O)N[C@@H](C(=O)N[C@@H]5C(=O)N6[C@@H]5SC(C)(C)[C@@H]6C(=O)O)c5ccccc5)cc4)cc3)c3ccccc3)C(=O)N2[C@H]1C(=O)O [compound 9],MIC Pseudomonas aeruginosa I.F.O.,[3],25 µg/mL
same,MIC Escherchia coli NIHJ,[4],3.13 µg/mL
same,MIC Proteus vulgaris 3027,[5],12.5 µg/mL
same,MIC Staphylococcus aureus 209P,[6],< 1.57 µg/mL
same,MIC Klebsiella pneumoniae,[7],12.5 µg/mL
